# Results reported in patent publication US11098038B2, “Imidazole-based anticancer agents and derivatives thereof, and methods of making and using same” (The University of Toledo, priority 2017, dated 2021).
# What was measured:
# CCRF-CEM = experiment: NCI 60 screen, CCRF-CEM; format: cell-based; details: Homo sapiens, Leukemia
# Description: (§1) The compounds synthesized were tested at the National Cancer Institute (NCI) for anti-proliferative activity in the 60 human tumor cell line assay.
# HL-60(TB) = experiment: NCI 60 screen, HL-60(TB); format: cell-based; details: Homo sapiens, Leukemia
# Description: as §1
# MOLT-4 = experiment: NCI 60 screen, MOLT-4; format: cell-based; details: Homo sapiens, Leukemia
# Description: as §1
# RPMI-8226 = experiment: NCI 60 screen, RPMI-8226; format: cell-based; details: Homo sapiens, Leukemia
# Description: as §1
# SR = experiment: NCI 60 screen, SR; format: cell-based; details: Homo sapiens, Leukemia
# Description: as §1
# A549/ATCC = experiment: NCI 60 screen, A549/ATCC; format: cell-based; details: Homo sapiens, Non-Small Cell Lung
# Description: as §1
# EKVX = experiment: NCI 60 screen, EKVX; format: cell-based; details: Homo sapiens, Non-Small Cell Lung
# Description: as §1
# HOP-62 = experiment: NCI 60 screen, HOP-62; format: cell-based; details: Homo sapiens, Non-Small Cell Lung
# Description: as §1
# HOP-92 = experiment: NCI 60 screen, HOP-92; format: cell-based; details: Homo sapiens, Non-Small Cell Lung
# Description: as §1
# NCI-H226 = experiment: NCI 60 screen, NCI-H226; format: cell-based; details: Homo sapiens, Non-Small Cell Lung
# Description: as §1
# NCI-H23 = experiment: NCI 60 screen, NCI-H23; format: cell-based; details: Homo sapiens, Non-Small Cell Lung
# Description: as §1
# NCI-322M = experiment: NCI 60 screen, NCI-322M; format: cell-based; details: Homo sapiens, Non-Small Cell Lung
# Description: as §1
# NCI-460 = experiment: NCI 60 screen, NCI-460; format: cell-based; details: Homo sapiens, Non-Small Cell Lung
# Description: as §1
# NCI-H522 = experiment: NCI 60 screen, NCI-H522; format: cell-based; details: Homo sapiens, Non-Small Cell Lung
# Description: as §1
# COLO 205 = experiment: NCI 60 screen, COLO 205; format: cell-based; details: Homo sapiens, Colon
# Description: as §1
# HCC-2998 = experiment: NCI 60 screen, HCC-2998; format: cell-based; details: Homo sapiens, Colon
# Description: as §1
# HCT-116 = experiment: NCI 60 screen, HCT-116; format: cell-based; details: Homo sapiens, Colon
# Description: as §1
# HCT15 = experiment: NCI 60 screen, HCT15; format: cell-based; details: Homo sapiens, HCT-15, Colon
# Description: as §1
# HT29 = experiment: NCI 60 screen, HT29; format: cell-based; details: Homo sapiens, HT-29, Colon
# Description: as §1
# KM12 = experiment: NCI 60 screen, KM12; format: cell-based; details: Homo sapiens, Colon
# Description: as §1
# SW-620 = experiment: NCI 60 screen, SW-620; format: cell-based; details: Homo sapiens, Colon
# Description: as §1
# SF-268 = experiment: NCI 60 screen, SF-268; format: cell-based; details: Homo sapiens, CNS
# Description: as §1
# SF-295 = experiment: NCI 60 screen, SF-295; format: cell-based; details: Homo sapiens, CNS
# Description: as §1
# SF-539 = experiment: NCI 60 screen, SF-539; format: cell-based; details: Homo sapiens, CNS
# Description: as §1
# SNB-19 = experiment: NCI 60 screen, SNB-19; format: cell-based; details: Homo sapiens, CNS
# Description: as §1
# SNB-75 = experiment: NCI 60 screen, SNB-75; format: cell-based; details: Homo sapiens, CNS
# Description: as §1
# U251 = experiment: NCI 60 screen, U251; format: cell-based; details: Homo sapiens, U-251, CNS
# Description: as §1
# LOX IMVI = experiment: NCI 60 screen, LOX IMVI; format: cell-based; details: Homo sapiens, Melanoma
# Description: as §1
# MALME-3M = experiment: NCI 60 screen, MALME-3M; format: cell-based; details: Homo sapiens, Melanoma
# Description: as §1
# MDA-MB-435 = experiment: NCI 60 screen, MDA-MB-435; format: cell-based; details: Homo sapiens, Melanoma
# Description: as §1
# SK-MEL-2 [1] = experiment: NCI 60 screen, SK-MEL-2 (first line); format: cell-based; details: Homo sapiens; Melanoma, SK-MEL-2 (first of two lines so named, r37)
# Description: as §1
# SK-MEL-2 [2] = experiment: NCI 60 screen, SK-MEL-2 (second line); format: cell-based; details: Homo sapiens; Melanoma, SK-MEL-2 (second of two lines so named, r38)
# Description: as §1
# SK-MEL-5 = experiment: NCI 60 screen, SK-MEL-5; format: cell-based; details: Homo sapiens, Melanoma
# Description: as §1
# UACC-257 = experiment: NCI 60 screen, UACC-257; format: cell-based; details: Homo sapiens, Melanoma
# Description: as §1
# UACC-62 = experiment: NCI 60 screen, UACC-62; format: cell-based; details: Homo sapiens, Melanoma
# Description: as §1
# IGROV1 = experiment: NCI 60 screen, IGROV1; format: cell-based; details: Homo sapiens, IGROV-1, Ovarian
# Description: as §1
# OVCAR-3 = experiment: NCI 60 screen, OVCAR-3; format: cell-based; details: Homo sapiens, Ovarian
# Description: as §1
# OVCAR-4 = experiment: NCI 60 screen, OVCAR-4; format: cell-based; details: Homo sapiens, Ovarian
# Description: as §1
# OVCAR-5 = experiment: NCI 60 screen, OVCAR-5; format: cell-based; details: Homo sapiens, Ovarian
# Description: as §1
# OVCAR-8 = experiment: NCI 60 screen, OVCAR-8; format: cell-based; details: Homo sapiens, Ovarian
# Description: as §1
# NCI/ADR-RES = experiment: NCI 60 screen, NCI/ADR-RES; format: cell-based; details: Homo sapiens, Ovarian
# Description: as §1
# SK-OV-3 = experiment: NCI 60 screen, SK-OV-3; format: cell-based; details: Homo sapiens, Ovarian
# Description: as §1
# 786-0 = experiment: NCI 60 screen, 786-0; format: cell-based; details: Homo sapiens, Renal
# Description: as §1
# A498 = experiment: NCI 60 screen, A498; format: cell-based; details: Homo sapiens, Renal
# Description: as §1
# ACHN = experiment: NCI 60 screen, ACHN; format: cell-based; details: Homo sapiens, Renal
# Description: as §1
# CAKI-1 = experiment: NCI 60 screen, CAKI-1; format: cell-based; details: Homo sapiens, Renal
# Description: as §1
# RXF393 = experiment: NCI 60 screen, RXF393; format: cell-based; details: Homo sapiens, RXF 393, Renal
# Description: as §1
# SN12C = experiment: NCI 60 screen, SN12C; format: cell-based; details: Homo sapiens, Renal
# Description: as §1
# TK-10 = experiment: NCI 60 screen, TK-10; format: cell-based; details: Homo sapiens, Renal
# Description: as §1
# UO-31 = experiment: NCI 60 screen, UO-31; format: cell-based; details: Homo sapiens, Renal
# Description: as §1
# PC-3 = experiment: NCI 60 screen, PC-3; format: cell-based; details: Homo sapiens, Prostatic
# Description: as §1
# DU-145 = experiment: NCI 60 screen, DU-145; format: cell-based; details: Homo sapiens, Prostatic
# Description: as §1
# MCF7 = experiment: NCI 60 screen, MCF7; format: cell-based; details: Homo sapiens, Breast
# Description: as §1
# MDA-MB-231/ATCC = experiment: NCI 60 screen, MDA-MB-231/ATCC; format: cell-based; details: Homo sapiens, Breast
# Description: as §1
# HS 578T = experiment: NCI 60 screen, HS 578T; format: cell-based; details: Homo sapiens, Breast
# Description: as §1
# BT-549 = experiment: NCI 60 screen, BT-549; format: cell-based; details: Homo sapiens, Breast
# Description: as §1
# T-47D = experiment: NCI 60 screen, T-47D; format: cell-based; details: Homo sapiens, T47D, Breast
# Description: as §1
# MDA-MB-468 = experiment: NCI 60 screen, MDA-MB-468; format: cell-based; details: Homo sapiens, Breast
# Description: as §1
smiles,measurement,setting,value
"Cc1ccc(NC(=O)Cc2ccc(/C=C/C(=O)c3ncc[nH]3)cc2)cc1 [Compound 20, (E)-2-(4-(3-(1H-imidazol-2-yl)-3-oxoprop-1-en-1-yl)phenyl)-N-(p-tolyl)acetamide]",GI50,CCRF-CEM,4.67 µM
same,GI50,HL-60(TB),5.88 µM
same,GI50,MOLT-4,5.33 µM
same,GI50,RPMI-8226,1.79 µM
same,GI50,SR,0.99 µM
same,GI50,A549/ATCC,9.14 µM
same,GI50,EKVX,1.35 µM
same,GI50,HOP-62,5.24 µM
same,GI50,HOP-92,1.85 µM
same,GI50,NCI-H226,9.59 µM
same,GI50,NCI-H23,5.85 µM
same,GI50,NCI-322M,6.06 µM
same,GI50,NCI-460,6.32 µM
same,GI50,NCI-H522,4.54 µM
same,GI50,COLO 205,7.27 µM
same,GI50,HCC-2998,6.73 µM
same,GI50,HCT-116,3.28 µM
same,GI50,HCT15,2.01 µM
same,GI50,HT29,0.955 µM
same,GI50,KM12,3.09 µM
same,GI50,SW-620,5.22 µM
same,GI50,SF-268,5.32 µM
same,GI50,SF-295,7.9 µM
same,GI50,SF-539,4.76 µM
same,GI50,SNB-19,6.65 µM
same,GI50,SNB-75,7 µM
same,GI50,U251,1.59 µM
same,GI50,LOX IMVI,1.29 µM
same,GI50,MALME-3M,25 µM
same,GI50,MDA-MB-435,5.68 µM
same,GI50,SK-MEL-2 [1],18.1 µM
same,GI50,SK-MEL-2 [2],11.5 µM
same,GI50,SK-MEL-5,18.3 µM
same,GI50,UACC-257,25 µM
same,GI50,UACC-62,8.29 µM
same,GI50,IGROV1,6.47 µM
same,GI50,OVCAR-3,1.67 µM
same,GI50,OVCAR-4,10.4 µM
same,GI50,OVCAR-5,6.84 µM
same,GI50,OVCAR-8,7.24 µM
same,GI50,NCI/ADR-RES,6.73 µM
same,GI50,SK-OV-3,12.8 µM
same,GI50,786-0,4.28 µM
same,GI50,A498,19.9 µM
same,GI50,ACHN,6.51 µM
same,GI50,CAKI-1,9.63 µM
same,GI50,RXF393,7.68 µM
same,GI50,SN12C,5.91 µM
same,GI50,TK-10,7.93 µM
same,GI50,UO-31,3.01 µM
same,GI50,PC-3,7.1 µM
same,GI50,DU-145,4.56 µM
same,GI50,MCF7,1.15 µM
same,GI50,MDA-MB-231/ATCC,9.46 µM
same,GI50,HS 578T,13.6 µM
same,GI50,BT-549,6.42 µM
same,GI50,T-47D,6.47 µM
same,GI50,MDA-MB-468,3.3 µM
same,melting point,,218.5 °C
"Cn1ccnc1C(=O)/C=C/c1ccc(CC(=O)Nc2ccc(Cl)cc2)cc1 [Compound 30, (E)-N-(4-chlorophenyl)-2-(4-(3-(1-methyl-1H-imidazol-2-yl)-3-oxoprop-1-en-1-yl)phenyl)acetamide]",GI50,CCRF-CEM,1.46 µM
same,GI50,HL-60(TB),4.81 µM
same,GI50,MOLT-4,1.74 µM
same,GI50,RPMI-8226,0.959 µM
same,GI50,A549/ATCC,1.15 µM
same,GI50,EKVX,1.56 µM
same,GI50,HOP-62,2.16 µM
same,GI50,HOP-92,2.5 µM
same,GI50,NCI-H226,7.42 µM
same,GI50,NCI-H23,2.04 µM
same,GI50,NCI-322M,3.99 µM
same,GI50,NCI-460,1.58 µM
same,GI50,NCI-H522,4.85 µM
same,GI50,COLO 205,9.44 µM
same,GI50,HCC-2998,3.42 µM
same,GI50,HCT-116,1.31 µM
same,GI50,HCT15,0.999 µM
same,GI50,HT29,0.889 µM
same,GI50,KM12,1.51 µM
same,GI50,SW-620,1.25 µM
same,GI50,SF-268,1.24 µM
same,GI50,SF-295,7.39 µM
same,GI50,SF-539,6.4 µM
same,GI50,SNB-19,1.77 µM
same,GI50,SNB-75,1.9 µM
same,GI50,U251,1.1 µM
same,GI50,LOX IMVI,1.07 µM
same,GI50,MALME-3M,14.2 µM
same,GI50,MDA-MB-435,9.15 µM
same,GI50,SK-MEL-2 [1],25 µM
same,GI50,SK-MEL-2 [2],25 µM
same,GI50,SK-MEL-5,14.4 µM
same,GI50,UACC-257,25 µM
same,GI50,UACC-62,6.5 µM
same,GI50,IGROV1,5.27 µM
same,GI50,OVCAR-3,1.03 µM
same,GI50,OVCAR-4,2.18 µM
same,GI50,OVCAR-5,9.98 µM
same,GI50,OVCAR-8,3.49 µM
same,GI50,NCI/ADR-RES,2.22 µM
same,GI50,SK-OV-3,8.79 µM
same,GI50,786-0,1.6 µM
same,GI50,A498,25 µM
same,GI50,ACHN,15 µM
same,GI50,CAKI-1,13.5 µM
same,GI50,RXF393,2.97 µM
same,GI50,SN12C,3.04 µM
same,GI50,TK-10,12.3 µM
same,GI50,UO-31,2.27 µM
same,GI50,PC-3,1.37 µM
same,GI50,DU-145,1.42 µM
same,GI50,MCF7,0.891 µM
same,GI50,MDA-MB-231/ATCC,5.23 µM
same,GI50,HS 578T,15.7 µM
same,GI50,BT-549,3.53 µM
same,GI50,T-47D,4.3 µM
same,GI50,MDA-MB-468,1.03 µM
same,melting point,,250 °C
